From ChEMBL document CHEMBL4270586, “Novel hydrazido benzenesulfonamides-isatin conjugates: Synthesis, carbonic anhydrase inhibitory activity and molecular modeling studies” (Eur J Med Chem, 2018) come the findings set out here.

For orientation: Ki means a dissociation constant, usually derived from enzyme kinetics or from competition with a known ligand.

The target of this test is Carbonic anhydrase 9 (Homo sapiens, UniProt Q16790). The experiment in a line: Inhibition of recombinant human carbonic anhydrase 9 incubated for 15 mins prior to testing by stopped flow CO2 hydration assay.
Regarding `Cc1cc(C)c2c(c1)C(=NNC(=O)c1ccc(S(N)(=O)=O)cc1)C(=O)N2`, the Ki came out at 0.716 µM. Turning to `CCCN1C(=O)C(=NNC(=O)c2ccc(S(N)(=O)=O)cc2)c2ccccc21`, the inhibitory constant (Ki) was 0.0301 µM.

For the molecule `NS(=O)(=O)c1ccc(C(=O)NN=C2C(=O)Nc3ccccc32)cc1`, the Ki was 0.174 µM. Regarding `NS(=O)(=O)c1ccc(C(=O)NN=C2C(=O)Nc3ccc(Cl)cc32)cc1`, the Ki turned out to be 0.0315 µM. As to `CC(C)N1C(=O)C(=NNC(=O)c2ccc(S(N)(=O)=O)cc2)c2ccccc21`, the inhibition constant Ki was determined as 0.177 µM. Take `CCN1C(=O)C(=NNC(=O)c2ccc(S(N)(=O)=O)cc2)c2ccccc21`: the Ki was found to be 0.0089 µM. For the molecule `COc1ccc2c(c1)C(=NNC(=O)c1ccc(S(N)(=O)=O)cc1)C(=O)N2`, the Ki stood at 0.264 µM. With `Cc1ccc(CN2C(=O)C(=NNC(=O)c3ccc(S(N)(=O)=O)cc3)c3ccccc32)cc1`, the inhibition constant (Ki) came out at 0.0812 µM.

With `Cc1ccc2c(c1)C(=NNC(=O)c1ccc(S(N)(=O)=O)cc1)C(=O)N2`, the inhibition constant Ki worked out at 0.197 µM. For the molecule `NS(=O)(=O)c1ccc(C(=O)NN=C2C(=O)Nc3ccc(Br)cc32)cc1`, the Ki amounted to 0.101 µM. On to `NS(=O)(=O)c1ccc(C(=O)NN=C2C(=O)Nc3ccc(F)cc32)cc1`, for which the Ki is 0.0323 µM. With `C=CCN1C(=O)C(=NNC(=O)c2ccc(S(N)(=O)=O)cc2)c2ccccc21` the figure was 0.0779 µM; with `NS(=O)(=O)c1ccc(C(=O)NN=C2C(=O)N(Cc3ccccc3)c3ccccc32)cc1`, 0.0252 µM. For `NS(=O)(=O)c1ccc(C(=O)NN=C2C(=O)Nc3ccc([N+](=O)[O-])cc32)cc1`, the inhibition constant (Ki) was 0.0238 µM. With `NS(=O)(=O)c1ccc(C(=O)NN=C2C(=O)N(Cc3ccc(F)cc3)c3ccccc32)cc1` the figure was 0.148 µM; with `CN1C(=O)C(=NNC(=O)c2ccc(S(N)(=O)=O)cc2)c2ccccc21`, 0.0306 µM; with `CCCCN1C(=O)C(=NNC(=O)c2ccc(S(N)(=O)=O)cc2)c2ccccc21`, 0.0274 µM. With `CCOC(=O)CN1C(=O)C(=NNC(=O)c2ccc(S(N)(=O)=O)cc2)c2ccccc21`, the Ki amounted to 0.0177 µM.
